Legend:
Test in all cases: relative viability (nuclei count vs DMSO), 5 days (fraction); higher = more cells survive
[1] = compound: CN(C)C(=N)NC(=N)N [Metformin] + CCNC(=O)c1noc(-c2cc(C(C)C)c(O)cc2O)c1-c1ccc(CN2CCOCC2)cc1 [Luminespib] (partner 0.01 µM)
Summary of the method: (§1)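 Lung cancer cell lines in 1536-well plates got either a single drug or a fixed anchor-drug dose together with five library-drug doses (not always all listed) in √10 steps, by pin tool, on the day after seeding. Nuclei were counted after 5 days, and relative viability is the treated-to-vehicle ratio of nuclei counts. Values are medians of duplicate plates.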

[2] = compound: N#CC1(c2ccc(NC(=O)c3cccnc3NCc3ccncc3)cc2)CCCC1 [Apatinib] + CC(=O)Nc1cccc(-n2c(=O)n(C3CC3)c(=O)c3c(Nc4ccc(I)cc4F)n(C)c(=O)c(C)c32)c1 [Trametinib] (partner 0.02 µM)
Summary of the method: as §1

[3] = compound: N#CC1(c2ccc(NC(=O)c3cccnc3NCc3ccncc3)cc2)CCCC1 [Apatinib] + C[C@]1(O)C[C@@H](c2nc(-c3ccc4ccc(-c5ccccc5)nc4c3)c3c(N)nccn32)C1 [Linsitinib] (partner 1 µM)
Summary of the method: as §1

[4] = compound: N#CC1(c2ccc(NC(=O)c3cccnc3NCc3ccncc3)cc2)CCCC1 [Apatinib] + Nc1ncn([C@H]2C[C@H](O)[C@@H](CO)O2)c(=O)n1 [Decitabine] (partner 2 µM)
Summary of the method: as §1

Row | Cell Line | relative viability ([1]; first compound 10 µM) | relative viability ([1]; first compound 31.62 µM) | relative viability ([1]; first compound 100 µM) | relative viability ([1]; first compound 316.23 µM) | relative viability ([1]; first compound 1000 µM) | relative viability ([2]; first compound 0.08 µM) | relative viability ([2]; first compound 0.253 µM) | relative viability ([2]; first compound 0.8 µM) | relative viability ([2]; first compound 2.53 µM) | relative viability ([2]; first compound 8 µM) | relative viability ([3]; first compound 0.08 µM) | relative viability ([3]; first compound 0.253 µM) | relative viability ([3]; first compound 0.8 µM) | relative viability ([3]; first compound 2.53 µM) | relative viability ([3]; first compound 8 µM) | relative viability ([4]; first compound 0.08 µM) | relative viability ([4]; first compound 0.253 µM) | relative viability ([4]; first compound 0.8 µM) | relative viability ([4]; first compound 2.53 µM) | relative viability ([4]; first compound 8 µM)
1 | NCI-H23 | 0.207 | 0.244 | 0.218 | 0.272 | 0.214 | 0.477 | 0.393 | 0.427 | 0.426 | 0.31 | 0.694 | 0.652 | 0.501 | 0.568 | 0.542 | 0.32 | 0.333 | 0.304 | 0.332 | 0.475
2 | LCLC-103H | 0.934 | 1.18 | 1.06 | 0.961 | 1.04 | 0.702 | 0.699 | 0.722 | 0.713 | 0.688 | 1.1 | 1.05 | 1.06 | 1.09 | 0.993 | 0.792 | 0.739 | 0.687 | 0.726 | 0.744
3 | NCI-H1792 | 0.599 | 0.57 | 0.789 | 0.418 | 0.485 | 0.433 | 0.436 | 0.349 | 0.342 | 0.302 | 0.719 | 0.51 | 0.502 | 0.491 | 0.641 | 0.596 | 0.55 | 0.544 | 0.591 | 0.609
4 | NCI-H1944 | 0.815 | 0.902 | 0.895 | 0.725 | 0.804 | 0.395 | 0.429 | 0.318 | 0.403 | 0.29 | 1.19 | 1.22 | 1.06 | 1.25 | 1.26 | 0.41 | 0.466 | 0.401 | 0.421 | 0.504
5 | COR-L23 | 0.635 | 0.655 | 0.593 | 0.495 | 0.302 | 0.721 | 0.666 | 0.574 | 0.466 | 0.376 | 1.09 | 0.927 | 0.931 | 0.746 | 0.713 | 0.514 | 0.509 | 0.452 | 0.427 | 0.413
6 | COR-L 105 | 0.85 | 0.736 | 0.749 | 0.538 | 0.795 | 0.476 | 0.418 | 0.371 | 0.436 | 0.431 | 0.994 | 1.15 | 0.705 | 0.985 | 0.676 | 0.706 | 0.716 | 0.631 | 0.711 | 0.632
7 | HCC-15 |  | 0.235 | 0.348 | 0.35 | 0.321 | 0.393 | 0.295 | 0.327 | 0.367 | 0.308 | 1.02 | 0.937 | 0.813 | 0.878 | 0.878 | 0.703 | 0.656 | 0.638 | 0.604 | 0.606
8 | NCI-H1666 | 1.06 | 1.11 | 1.16 | 1.06 | 1.16 | 0.843 | 0.942 | 0.783 | 0.81 | 0.681 | 0.861 | 0.99 | 0.92 | 0.917 | 0.724 | 0.756 | 0.727 | 0.692 | 0.737 | 0.612
